What was measured:
PEC derived from hESC = test: Flow cytometry analysis of PEC derived from hESC and treated with heregulin and/or FGF2; format: cell-based, human
Text: Table 9 provides a summary of the flow cytometry analysis of PEC cells treated with Hrg1β and FGF2 at stage 3 and/or 4. The endocrine cells are denoted as CHGA positive (or CHGA+) cells and the non-endocrine cells are denoted as CHGA negative (or CHGA−) cells. The endocrine (CHGA+) and non-endocrine cells (CHGA−) may stain positive for other markers, e.g., positive for PDX1 and/or NKX6.1.

[1] = system: hES-derived cell aggregates; test: Cell aggregate size of hES-derived cell aggregates in suspension culture; format: cell-based, human
Description: Preliminary studies were performed using Heregulin and FGF. In certain of these studies, Rho-kinase inhibitor, Y-27632, was included.

[2] = system: mice implanted with iPEC grafts; test: Glucose stimulated insulin secretion (GSIS): human C-peptide in serum of mice implanted with iPEC grafts; format: in vivo
Text: (§1) To determine whether the change in the composition of PEC and iPEC populations affected in vivo function, PEC and iPEC grafts from most of the experiments described in Table 11 were transplanted into mice substantially as previously described herein and in Applicant's other patent and non-patent publications, including Schulz et al. (2012) and Kroon et al (2008), supra and U.S. Pat. Nos. 7,534,608; 7,695,965; 7,993,920 and 8,278,106, supra. Briefly, PEC and iPEC populations were wholly encapsulated with a […] semi-permeable cell encapsulation device, some of which included micro perforations. The devices were manufactured by Applicant and are described in detail in U.S. Pat. No. 8,278,106, entitled ENCAPSULATION OF PANCREATIC CELLS FROM HUMAN PLURIPOTENT STEM CELLS, filed Nov. 13, 2009, the disclosure of which is incorporated herein by reference in its entirety. Glucose stimulated insulin secretion (GSIS) assays were performed starting from about 56 days post-implant. Blood was collected prior to (fasting) and at combinations of 30 and/or 60 minutes after glucose administration. Graft function was assessed by measuring human C-peptide concentrations in the serum in response to glucose administration.
The amount of human C-peptide released into the serum is indicative of the amount of insulin released. C-peptide is a short 31 amino acid peptide connecting or linking A and B-chains of proinsulin and preproinsulin, which is secreted by functioning beta or insulin secreting cells. As discussed previously by Kroon et al. (2008) supra and others, human C-peptide measurements are appropriate for assessing the release of de novo-generated insulin by the implanted cells. […] Human C-peptide was detected in the serum by at least 8 weeks post-implant. With additional weeks of implant and fasting, glucose-stimulated C-peptide levels increased with the peak levels of C-peptide shifting from 60 minutes to 30 minutes post-glucose administration, which is indicative of a more rapid response to glucose challenge as the insulin cells mature.

iPSC = test: Cell mass of iPSC-derived differentiation cultures for implantation; format: cell-based, human; details: heregulin at stages 3 and 4 without a rho-kinase inhibitor; implantation impossible
Text: As such, the provision of heregulin alone or a rho-kinase inhibitor alone is not substantially similar to the sum effect of the two combined. That is, alone neither results in robust glucose responsiveness in vivo but combined they produce glucose responsiveness similar to that of hES-derived cells. Accordingly, it appeared that the provision of both heregulin and a rho-kinase inhibitor is synergistic since their combined effect is greater than the sum of the effect of each separately.

[3] = system: iPS-derived cell cultures (iPEC); test: Flow cytometry analysis of iPEC populations from heregulin treated iPS-derived cell cultures; format: cell-based, human; details: hIPSC, 30 ng/mL heregulin at stages 3 and 4
Text: (§2) Changes to the standard method as set forth in Table 7 include, but are not limited to: optimization of the number of times any iPSC is passaged; modulating levels of BMP signaling; modulating iPSC suspension aggregation parameters during expansion and differentiation (e.g. shear force, rotation speed and the like); optimization of the concentrations, time of use and duration of use of growth factors, such as Wnt, Activin and rho-kinase inhibitors; and treatment with other growth factors at various stages 1 through 4 of the differentiation protocol as candidates for improving cell mass, proliferation, differentiation, survival and the like (e.g. ERBB ligands). These many iterative experiments were tested alone, or in combination, to determine how differentiation methods for iPSC during stages 1-4 could be optimized. […] The baseline conditions were similar to those described in Examples 1, 2 and 5 as well as Table 7 herein, except that heregulin was added at stages 3 and 4. Although 30 ng/mL of Hrg1β was used, concentrations ranging from 10 ng/mL to 50 ng/mL, or even greater than 50 ng/mL are suitable. Also, addition of a rho-kinase inhibitor, Y-27632, was maintained in the differentiation cultures as described in Example 2.
(§3) To determine the effect of the addition of heregulin or heregulin and a rho-kinase inhibitor on stage 3 and 4 cell subpopulations, iPEC populations were analyzed by flow cytometry. Table 11 provides a summary of the flow cytometry analysis of various iPEC populations using the formulations set forth in Table 10, as well as such formulations having been modified by increasing the Activin concentration to 200 ng/mL. […] Table 11 also discloses data regarding in vivo function of the cells produced in each experiment.

PEC (hESC) = test: Flow cytometry analysis of PEC from heregulin treated hESC-derived cell cultures (E2354); format: cell-based, human
Text: as §2, §3
Under certain conditions, the ratio of subpopulations of cells in the PEC (hESC, E2354) and iPEC (E2314, E2344, E2347) populations were altered. For example, sometimes, the percentage of endocrine (CHGA+) cells decreased and the percentage of non-endocrine cells (CHGA−/NKX6.1+/PDX1+) increased as compared to the baseline (no heregulin) conditions.

[4] = system: mice implanted with PEC grafts (CyT203 hESC); test: Glucose stimulated insulin secretion (GSIS): human C-peptide in serum of mice implanted with PEC grafts from hESC; format: in vivo; details: experiment 2354; PEC produced from hESC; grafts resulting from heregulin treatment
Text: as §1
The amount of human C-peptide released into the serum is indicative of the amount of insulin released. […] Human C-peptide was detected in the serum by at least 8 weeks post-implant. […]

Fibroblast growth factor 2 [FGF2]
CHGA− NKX6.1− PDX1− (Triple Negative/ Residual Cells) (PEC derived from hESC; 50 ng/mL of FGF2 for 2 days at stage 3, control 13.1): 9.15% | CHGA+ (Endocrine) (PEC derived from hESC; 50 ng/mL of FGF2 for 2 days at stage 3, control 32.9): 11.9% | CHGA− NKX6.1+ PDX1+ (Non-endocrine) (PEC derived from hESC; 50 ng/mL of FGF2 for 2 days at stage 3, control 54.01): 79% | CHGA− NKX6.1− PDX1− (Triple Negative/ Residual Cells) (PEC derived from hESC; 50 ng/mL of FGF2 for 3 days at stage 3, control 13.1): 22.7% | CHGA+ (Endocrine) (PEC derived from hESC; 50 ng/mL of FGF2 for 3 days at stage 3, control 32.9): 0.33% | CHGA− NKX6.1+ PDX1+ (Non-endocrine) (PEC derived from hESC; 50 ng/mL of FGF2 for 3 days at stage 3, control 54.01): 76.9% | cell aggregate size ([1]; 3 days of 50 ng/mL FGF2 at stage 3 compared to 2 days): increase in cell aggregate size

C[C@@H](N)[C@H]1CC[C@H](C(=O)Nc2ccncc2)CC1 [rho-kinase inhibitor, Y-27632, reference compound]
in vivo function of graft ([2]; rho-kinase inhibitor alone (baseline conditions, no heregulin)): poor in vivo function

Heregulin-1β
CHGA− NKX6.1− PDX1− (Triple Negative/ Residual Cells) (PEC derived from hESC; 10 ng/mL Heregulin-1β at stage 3, control without Hrg and FGF2 13.1, listed as Hrg): 8.55% | CHGA− NKX6.1− PDX1− (Triple Negative/ Residual Cells) (PEC derived from hESC; 10 ng/mL Heregulin-1β at stage 3, control without Hrg and FGF2 13.1, listed as Hrg1β): did decrease | CHGA− NKX6.1+ PDX1+ (Non-endocrine) (PEC derived from hESC; 10 ng/mL Heregulin-1β at stage 3, control without Hrg and FGF2 54.01): 61.2% | CHGA+ (Endocrine) (PEC derived from hESC; 10 ng/mL Heregulin-1β at stage 3, share of PEC population, control without Hrg and FGF2 32.9, listed as Hrg): 30.3% | CHGA+ (Endocrine) (PEC derived from hESC; 10 ng/mL Heregulin-1β at stage 3, share of PEC population, control without Hrg and FGF2 32.9, listed as Hrg1β): not significantly affected | CHGA− NKX6.1− PDX1− (Triple Negative/ Residual Cells) (PEC derived from hESC; 50 ng/mL Heregulin-1β at stage 3, control 13.1, listed as Hrg): 6.9% | CHGA− NKX6.1− PDX1− (Triple Negative/ Residual Cells) (PEC derived from hESC; 50 ng/mL Heregulin-1β at stage 3, control 13.1, listed as Hrg1β): did decrease and more so | CHGA+ (Endocrine) (PEC derived from hESC; 50 ng/mL Heregulin-1β at stage 3, control 32.9): 28.9% | CHGA− NKX6.1+ PDX1+ (Non-endocrine) (PEC derived from hESC; 50 ng/mL Heregulin-1β at stage 3, control 54.01): 64.2% | cell mass (iPSC): visibly poor cell mass | CHGA− NKX6.1− PDX1− (Triple Negative/ Residual Cells) ([3]; Exp. E2314, baseline 3.20): 9.88% | CHGA− NKX6.1− PDX1+ (PDX1 only) ([3]; Exp. E2314, baseline 11.32): 16.83% | CHGA+ (Endocrine) ([3]; Exp. E2314, baseline 19.83): 9.00% | CHGA− NKX6.1+ PDX1+ (Non-endocrine) ([3]; Exp. E2314, baseline 65.59): 64.21% | CHGA− NKX6.1− PDX1− (Triple Negative/ Residual Cells) ([3]; Exp. E2344, baseline 1.80): 2.75% | CHGA− NKX6.1− PDX1+ (PDX1 only) ([3]; Exp. E2344, baseline 5.45): 11.23% | CHGA− NKX6.1+ PDX1+ (Non-endocrine) ([3]; Exp. E2344, baseline 36.15): 49.00% | CHGA+ (Endocrine) ([3]; Exp. E2344, baseline 56.51): 36.13% | CHGA− NKX6.1− PDX1− (Triple Negative/ Residual Cells) ([3]; Exp. E2347, baseline 2.11): 1.68% | CHGA− NKX6.1− PDX1+ (PDX1 only) ([3]; Exp. E2347, baseline 10.97): 12.30% | CHGA− NKX6.1+ PDX1+ (Non-endocrine) ([3]; Exp. E2347, baseline 37.16): 68.91% | CHGA+ (Endocrine) ([3]; Exp. E2347, baseline 49.78): 17.27% | CHGA− NKX6.1− PDX1− (Triple Negative/ Residual Cells) ([3]; Exp. E2380, baseline 9.10): 7.03% | CHGA− NKX6.1− PDX1+ (PDX1 only) ([3]; Exp. E2380, baseline 12.08): 17.24% | CHGA− NKX6.1+ PDX1+ (Non-endocrine) ([3]; Exp. E2380, baseline 38.18): 29.72% | CHGA+ (Endocrine) ([3]; Exp. E2380, baseline 41.16): increased rather than decreased | CHGA+ (Endocrine) ([3]; Exp. E2380, baseline 41.16, listed as Hg): 45.91% | cell aggregate size ([1]; 10 ng/mL for one day at stage 1, compared to suspension culture without Heregulin-1β, preliminary studies): increased the cell aggregate size | aggregate disk size ([1]; Hrg1β increased from 10 ng/mL to 50 ng/mL at stage 3): aggregate disk size increased | CHGA− NKX6.1− PDX1− (Triple Negative/ Residual Cells) (PEC (hESC); Exp. E2354, 30 ng/mL heregulin at stages 3 and 4, baseline 1.75): 1.86% | CHGA− NKX6.1− PDX1+ (PDX1 only) (PEC (hESC); Exp. E2354, 30 ng/mL heregulin at stages 3 and 4, baseline 2.89): 8.10% | CHGA+ (Endocrine) (PEC (hESC); Exp. E2354, 30 ng/mL heregulin at stages 3 and 4, baseline 33.39): 16.18% | CHGA− NKX6.1+ PDX1+ (Non-endocrine) (PEC (hESC); Exp. E2354, 30 ng/mL heregulin at stages 3 and 4, baseline 62.01): 73.00% | serum C-peptide compared to baseline controls [4]: does not show higher levels of serum C-peptide | increase of serum human C-peptide compared to grafts prepared without heregulin (baseline) ([2]; experiment 2380, 60 minutes post glucose administration): ~5 fold | serum human C-peptide ([2]; experiment 2380, iPEC grafts resulting from heregulin treatment, 60 minutes post glucose administration, baseline 200 pM): 933 pM | serum human C-peptide post glucose administration compared to baseline controls ([2]; grafts resulting from heregulin treatment, in general (FIGS. 7A-7C)): higher levels of serum human C-peptide

Source: US11905530B2, “Cell encapsulation device comprising a pancreatic progenitor cell population” (ViaCyte, Inc., priority 2009, dated 2024)
